Test results published in PMC6270420, “Antibacterial Activity of Salicylanilide 4-(Trifluoromethyl)benzoates” (Molecules, 2013).
Values after ≈ are worked out from the molar mass of the structure shown. Like-named read-outs stand apart in the source and are kept apart here.

How the values were obtained:
[1] = system: Mycobacterium tuberculosis 331/88 (H37Rv); test: Antimycobacterial MIC micromethod, Šula's medium; assay type: cell-based; conditions: read-out: MIC Mtb. 331/88
[2] = system: Mycobacterium avium 330/88; test: Antimycobacterial MIC micromethod; assay type: cell-based
[3] = system: Mycobacterium kansasii 235/80; test: Antimycobacterial MIC micromethod; assay type: cell-based; conditions: read-out: MIC M. kansasii 235/80
[4] = system: M. kansasii 6509/96 (clinically isolated strain); test: Antimycobacterial MIC micromethod; assay type: cell-based; conditions: Mycobacterium kansasii, read-out: MIC M. kansasii 6509/96
Mtb. 7357/1988 = test: microbe, parasite or virus in culture; assay type: cell-based; conditions: Mycobacterium tuberculosis, read-out: MIC Mtb. 7357/1988
Mtb. 9449/2006 = test: microbe, parasite or virus in culture; assay type: cell-based; conditions: Mycobacterium tuberculosis, read-out: MIC Mtb. 9449/2006
Mtb. 53/2009 = test: microbe, parasite or virus in culture; assay type: cell-based; conditions: Mycobacterium tuberculosis, read-out: MIC Mtb. 53/2009
Mtb. 234/2005 = test: microbe, parasite or virus in culture; assay type: cell-based; conditions: Mycobacterium tuberculosis, read-out: MIC Mtb. 234/2005
Mtb. Praha 1 = test: microbe, parasite or virus in culture; assay type: cell-based; conditions: Mycobacterium tuberculosis, read-out: MIC Mtb. Praha 1
Mtb. Praha 131 (XDR-TB) = test: microbe, parasite or virus in culture; assay type: cell-based; conditions: Mycobacterium tuberculosis, read-out: MIC Mtb. Praha 131 (XDR-TB)
[5] = molecular target: T1, mycobacterial isocitrate lyase (ICL1, Rv0467) (Mycobacterium tuberculosis, UniProt P9WKK7); test: Isocitrate lyase inhibition assay (ICL1); assay type: biochemical, Mycobacterium tuberculosis H37Rv; conditions: 10 μmol/L; read-out: % ICL inhibition at 10 μmol/L (± standard deviation)
T1 construct: His tag (from pET-28b(+)); made in house; host or cells: E. coli BL21(DE3), pET-28b(+) plasmid
T1 sequence (P9WKK7 1-428): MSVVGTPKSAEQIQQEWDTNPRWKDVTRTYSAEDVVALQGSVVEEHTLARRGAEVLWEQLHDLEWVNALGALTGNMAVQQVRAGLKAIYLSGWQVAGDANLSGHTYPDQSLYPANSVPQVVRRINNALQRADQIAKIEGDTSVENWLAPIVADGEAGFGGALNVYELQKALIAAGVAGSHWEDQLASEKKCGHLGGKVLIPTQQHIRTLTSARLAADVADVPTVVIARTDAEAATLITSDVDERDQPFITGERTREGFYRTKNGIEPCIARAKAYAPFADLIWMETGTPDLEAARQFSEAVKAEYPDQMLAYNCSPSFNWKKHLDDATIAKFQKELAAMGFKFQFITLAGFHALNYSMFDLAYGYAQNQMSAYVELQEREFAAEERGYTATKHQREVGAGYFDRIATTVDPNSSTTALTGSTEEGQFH

[6] = system: Enterococcus sp. J 14365/08; test: Antibacterial microdilution broth method; assay type: cell-based; conditions: read-out: MIC/IC90 Enterococcus sp. J 14365/08
Procedure: (§1) The in vitro antibacterial activity was assayed against eight Gram-positive and Gram-negative strains: Staphylococcus aureus CCM 4516/08, methicillin-resistant Staphylococcus aureus H 5996/08 (MRSA), Staphylococcus epidermidis H 6966/08, Enterococcus sp. J 14365/08; Escherichia coli CCM 4517, Klebsiella pneumoniae D 11750/08, ESBL-positive Klebsiella pneumoniae J 14368/08, and Pseudomonas aeruginosa CCM 1961.
(§2) The microdilution broth method modified according to standard M07-A07 in Mueller-Hinton broth (HiMedia Laboratories, Mumbai, India) adjusted to pH 7.4 (±0.2) was used. The tested compounds were dissolved in DMSO to the final concentrations ranging from […]. Benzylpenicillin (penicillin G) was used as a comparative drug. Bacterial inoculum in sterile water was prepared to match 0.5 McFarland scale ([…]). The minimum inhibitory concentrations were assayed as 90% (IC90) or higher reduction of growth when compared to the control. The determination of results was performed visually and spectrophotometrically (at 540 nm). The values of MICs were determined after 24 and 48 h of incubation in the darkness at 35 °C (±0.1) in a humid atmosphere.

[7] = system: Escherichia coli CCM 4517; test: Antibacterial microdilution broth method; assay type: cell-based; conditions: read-out: MIC/IC90 E. coli CCM 4517
Procedure: as §1, §2

[8] = system: Staphylococcus aureus CCM 4516/08; test: Antibacterial microdilution broth method; assay type: cell-based; conditions: read-out: MIC/IC90 S. aureus CCM 4516/08
Procedure: as §1, §2

[9] = system: Staphylococcus epidermidis H 6966/08; test: Antibacterial microdilution broth method; assay type: cell-based; conditions: read-out: MIC/IC90 S. epidermidis H 6966/08
Procedure: as §1, §2

[10] = system: methicillin-resistant Staphylococcus aureus H 5996/08 (MRSA); test: Antibacterial microdilution broth method; assay type: cell-based; conditions: read-out: MIC/IC90 MRSA H 5996/08
Procedure: as §1, §2

[11] = system: Gram-positive cocci including MRSA; test: Antibacterial microdilution, summary for Gram-positive cocci; assay type: cell-based; conditions: Staphylococcus aureus, read-out: MICs against Gram-positive cocci
Procedure: as §1, §2

What does the source list for O=C(Oc1cc(Cl)ccc1C(=O)Nc1cccc(Cl)c1)c1ccc(C(F)(F)F)cc1 [1b]?
MIC ([1]; 336 h, 14 d): 4 µM (≈ 1.82 µg/mL); MIC ([1]; 504 h, 21 d): 4 µM (≈ 1.82 µg/mL); MIC ([2]; 330/88, 336 h, 14 d): 8 µM (≈ 3.63 µg/mL); MIC ([2]; 330/88, 504 h, 21 d): 8 µM (≈ 3.63 µg/mL); MIC ([3]; 235/80, 168 h, 7 d): 1 µM (≈ 0.454 µg/mL); MIC ([3]; 235/80, 336 h, 14 d): 4 µM (≈ 1.82 µg/mL); MIC ([3]; 235/80, 504 h, 21 d): 4 µM (≈ 1.82 µg/mL); MIC ([4]; 168 h, 7 d): 2 µM (≈ 0.908 µg/mL); MIC ([4]; 336 h, 14 d): 8 µM (≈ 3.63 µg/mL); MIC ([4]; 504 h, 21 d): 8 µM (≈ 3.63 µg/mL); MIC (Mtb. 7357/1988; 336 h): 8 µM (≈ 3.63 µg/mL); MIC (Mtb. 7357/1988; 504 h): 8 µM (≈ 3.63 µg/mL); MIC (Mtb. 9449/2006; 336 h): 4 µM (≈ 1.82 µg/mL); MIC (Mtb. 9449/2006; 504 h): 4 µM (≈ 1.82 µg/mL); MIC (Mtb. 53/2009; 336 h): 8 µM (≈ 3.63 µg/mL); MIC (Mtb. 53/2009; 504 h): 8 µM (≈ 3.63 µg/mL); MIC (Mtb. 234/2005; 336 h): 8 µM (≈ 3.63 µg/mL); MIC (Mtb. 234/2005; 504 h): 8 µM (≈ 3.63 µg/mL); MIC (Mtb. Praha 1; 336 h): 4 µM (≈ 1.82 µg/mL); MIC (Mtb. Praha 1; 504 h): 4 µM (≈ 1.82 µg/mL); MIC (Mtb. Praha 131 (XDR-TB); 336 h): 8 µM (≈ 3.63 µg/mL); MIC (Mtb. Praha 131 (XDR-TB); 504 h): 8 µM (≈ 3.63 µg/mL); inhibition at 10 µM [5]: 13 ± 1.7%; MIC ([6]; SP.J14365/08, 24 h): 7.81 µM (≈ 3.55 µg/mL); MIC ([6]; SP.J14365/08, 48 h): 15.6 µM (≈ 7.1 µg/mL); MIC ([7]; CCM4517, 24 h): > 250 µM; MIC ([7]; CCM4517, 48 h): > 250 µM; MIC ([8]; CCM4516, 24 h): 0.98 µM (≈ 0.445 µg/mL); MIC ([8]; CCM4516, 48 h): 1.95 µM (≈ 0.886 µg/mL); MIC ([9]; H6966/08, 24 h): 0.98 µM (≈ 0.445 µg/mL); MIC ([9]; H6966/08, 48 h): 1.95 µM (≈ 0.886 µg/mL); MIC ([10]; 24 h): 0.98 µM (≈ 0.445 µg/mL); MIC ([10]; 48 h): 1.95 µM (≈ 0.886 µg/mL); MIC [11]: < 1 µM
